Activity calls are given as the source filed them. No cut-off for these calls is given here.
Legend:
MCF7 [1] = assay: Photo-cytotoxicity against human MCF7 cells assessed as reduction in cell viability incubated for 48 hrs followed by 28.8 J/cm2 laser irradiation for 20 mins by MTT assay; assay type: functional, cell-based; conditions: MCF7, light or radiation study
[2] = Toxicity against human MCF7 cells assessed as reduction in cell viability measured after 48 hrs by MTT assay; assay type: cell-based
A-375 [3] = assay: Induction of apoptosis in human A375 cells exposed to 28.8 J/cm2 laser irradiation assessed as increase in intracellular ROS using DCFH-DA after 4 hrs by spectrofluorimetric method; assay type: functional, cell-based
A-375 [4] = assay: Antitumor activity against human A375 cells xenografted in nude mouse exposed to 28.8 J/cm2 laser irradiation assessed as tumor size at 5 mg/kg administered twice week measured after 21 days (reference value: 4.31 +/- 0.38); assay type: functional
A-375 [5] = assay: Induction apoptosis in human A375 cells xenografted into nude mouse at 5 mg/kg administered twice week measured after 21 days by TUNEL assay; assay type: functional, organism-based
Mus musculus [6] = assay: Toxicity in nude mouse xenografted with human A375 cells exposed to 28.8 J/cm2 laser irradiation assessed as change in body weight at 5 mg/kg administered twice a week measured after 21 days; assay type: organism-based, A-375; conditions: in vivo, 504 h
[7] = Cellular uptake in lysosome of human […] cells at 2.5 uM incubated for 48 hrs followed by 28.8 J/cm2 laser irradiation for 20 mins by lysosome Red dye based confocal microscopy; assay type: ADME, cell-based
Mus musculus [8] = assay: Toxicity in nude mouse xenografted with human A375 cells assessed as tissue lesions at 5 mg/kg by hematoxylin-eosin staining method; assay type: organism-based, A-375; conditions: in vivo
A-375 [9] = assay: Induction of apoptosis in human A375 cells exposed to 28.8 J/cm2 laser irradiation assessed as increase in PARP cleavage by western blot analysis; assay type: functional, cell-based; conditions: TDE = time-dependent effect
MCF7 [10] = assay: Photo-cytotoxicity against human MCF7 cells assessed as induction of cell death incubated for 48 hrs followed by 28.8 J/cm2 laser irradiation dose 20 mins by MTT assay; assay type: functional, cell-based
MKN-45 = assay: Photo-cytotoxicity against human MKN45 cells assessed as induction of cell death incubated for 48 hrs followed by 28.8 J/cm2 laser irradiation dose 20 mins by MTT assay; assay type: functional, cell-based
A-375 [11] = assay: Induction of apoptosis in human A375 cells exposed to 28.8 J/cm2 laser irradiation assessed as nuclear condensation measured after 12 hrs by TUNEL assay; assay type: functional, cell-based
A-375 [12] = assay: Induction apoptosis in human A375 cells xenografted into nude mouse exposed to 28.8 J/cm2 laser irradiation at 5 mg/kg administered twice week measured after 21 days by TUNEL assay; assay type: functional, organism-based
[13] = Cellular uptake in nucleus of human […] cells at 2.5 uM incubated for 48 hrs followed by 28.8 J/cm2 laser irradiation for 20 mins by DAPI dye based confocal microscopy; assay type: ADME, cell-based
A-375 [14] = assay: Photo-cytotoxicity against human A375 cells assessed as induction of cell death incubated for 48 hrs followed by 28.8 J/cm2 laser irradiation dose 20 mins by MTT assay; assay type: functional, cell-based
A-375 [15] = assay: Induction of apoptosis in human A375 cells exposed to 28.8 J/cm2 laser irradiation assessed as nuclear fragmentation measured after 12 hrs by TUNEL assay; assay type: functional, cell-based
[16] = Cellular uptake in endoplasmic reticulum of human […] cells at 2.5 uM incubated for 48 hrs followed by 28.8 J/cm2 laser irradiation for 20 mins by ER tracker Red dye based confocal microscopy; assay type: ADME, cell-based
A-375 [17] = assay: Induction of apoptosis in human A375 cells exposed to 28.8 J/cm2 laser irradiation assessed as increase in intracellular ROS using DCFH-DA after 12 hrs by spectrofluorimetric method; assay type: functional, cell-based
Mus musculus [18] = assay: Toxicity in nude mouse xenografted with human A375 cells exposed to 28.8 J/cm2 laser irradiation assessed as tissue lesions at 5 mg/kg by hematoxylin-eosin staining method; assay type: organism-based, A-375; conditions: in vivo
A-375 [19] = assay: Cellular uptake in human A375 cells at 2.5 uM incubated for 48 hrs followed by 28.8 J/cm2 laser irradiation for 20 mins by fluorescence microscopic imaging method; assay type: ADME, cell-based; conditions: a-375, 48 h
HCT-116 = assay: Photo-cytotoxicity against human HCT116 cells assessed as induction of cell death incubated for 48 hrs followed by 28.8 J/cm2 laser irradiation dose 20 mins by MTT assay; assay type: functional, cell-based
Mus musculus [20] = assay: Toxicity in nude mouse xenografted with human A375 cells assessed as change in body weight at 5 mg/kg administered twice a week measured after 21 days; assay type: organism-based, A-375; conditions: in vivo, 504 h
A-375 [21] = assay: Induction of apoptosis in human A375 cells exposed to 28.8 J/cm2 laser irradiation assessed as apoptotic bodies measured after 12 hrs by TUNEL assay; assay type: functional, cell-based
A-375 [22] = assay: Induction apoptosis in human A375 cells xenografted into nude mouse exposed to 28.8 J/cm2 laser irradiation assessed as increase in cleaved capase-3 level at 5 mg/kg administered twice week measured after 21 days by immunohistochemistry assay; assay type: functional, organism-based
[23] = Cellular uptake in mitochondria of human […] cells at 2.5 uM incubated for 48 hrs followed by 28.8 J/cm2 laser irradiation for 20 mins by Mitotracker Red dye based confocal microscopy; assay type: ADME
A-375 [24] = assay: Induction of apoptosis in human A375 cells exposed to 28.8 J/cm2 laser irradiation assessed as increase in caspase3 cleavage by western blot analysis; assay type: functional, cell-based; conditions: TDE = time-dependent effect
A-375 [25] = assay: Antitumor activity against human A375 cells xenografted in nude mouse assessed as tumor size at 5 mg/kg administered twice week measured after 21 days (reference value: 4.31 +/- 0.38); assay type: functional

SMILES: O=C1c2cccc3c2c(cc2c4ccccc4sc32)C(=O)N1CCOCCO
- IC50 (MCF7 [1]): 11.4 µM
- IC50 at 48 h [2]: 18.8 µM

SMILES: O=C1c2cccc3c2c(cc2c4cc(Br)ccc4sc32)C(=O)N1CCOCCO
- IC50 (MCF7 [1]): 18.5 µM
- IC50 at 48 h [2]: > 50 µM

SMILES: O=c1c2ccc3sc4ccccc4c4ccc(c(=O)n1CCOCCO)c2c34
- IC50 (MCF7 [1]): 1.4 µM
- IC50 at 48 h [2]: 18.2 µM

SMILES: O=c1c2ccc3sc4ccc(Br)cc4c4ccc(c(=O)n1CCOCCO)c2c34
- Activity (A-375 [3]): Active
- fold change (FC) (A-375 [4]): 0.5
- IC50 (MCF7 [1]): 2.65 µM
- Activity (A-375 [5]): inactive
- Activity (Mus musculus [6]): Non-toxic
- Drug uptake [7]: Not Active
- Activity (Mus musculus [8]): Toxic
- Activity (A-375 [9]): tde
- Activity (MCF7 [10]): Dose-dependent effect
- Activity (MKN-45): Dose-dependent effect
- Activity (A-375 [11]): Active
- Activity (A-375 [12]): Active
- Drug uptake [13]: Not Active
- Activity (A-375 [14]): Dose-dependent effect
- Activity (A-375 [15]): Active
- IC50 at 48 h [2]: > 50 µM
- Drug uptake [16]: Not Active
- Activity (A-375 [17]): inactive
- Activity (Mus musculus [18]): Toxic
- Drug uptake (A-375 [19]): Active
- Activity (HCT-116): Dose-dependent effect
- Activity (Mus musculus [20]): Non-toxic
- Activity (A-375 [21]): Active
- Activity (A-375 [22]): Active
- Drug uptake [23]: Active
- Activity (A-375 [24]): tde
- fold change (FC) (A-375 [25]): 3

— ChEMBL document CHEMBL3817836, “One small molecule as a theranostic agent: naphthalimide dye for subcellular fluorescence localization and photodynamic therapy in vivo” (Medchemcomm, 2016)
